In PMC11433679, “Synthesis, Characterization, and Biological Evaluation of N-Methyl Derivatives of Norbelladine” (Molecules, 2024):
pEC50, pIC50: −log10 of the molar value.

Assays:
[1] = Cytotoxicity assay (Cell-Titer GLO, ATP levels, 72 h); format: cell-based, human; conditions: human, 72 h treatment, 4–500 µM
Source text: (§1) The human hepatocarcinoma Huh7 cell line (CVCL_0336) was maintained in Dulbecco’s Modified Eagle Medium (DMEM) supplemented with 10% fetal bovine serum (FBS) and 1% penicillin/streptomycin solution (PS, from GIBCO, Fisher Scientific, Toronto, ON, Canada). The human leukemia monocytic THP-1 (CVCL_0006) and adenocarcinoma HCT-8 cell lines (CVCL_2478) were maintained in Roswell Park Memorial Institute (RPMI) medium supplemented with 10% FBS or horse serum, respectively, and 1% PS. All reagents and antibiotics were purchased from GIBCO, Fisher Scientific, Toronto, ON, Canada). Cells were kept in an incubator at 37 °C and 5% CO2.
(§2) In total, 10 × 10^3 Huh7 cells/well, or 5 × 10^4 THP-1 or HCT-8 cells/well were plated in 96-well plates and incubated at 37 °C and 5% CO2. Compounds (4–500 µM, 2-fold dilutions) were added the next day and cytotoxicity was assessed 72 h later by measuring ATP levels with the Cell-Titer GLO assay kit (Promega, Madison, WI, USA). Cell-Titer GLO reagent was added to the plates previously equilibrated to room temperature for 30 min. Plates were mixed for 2 min and incubated for 10 min at room temperature. The luminescence signal was measured with a microplate reader (Synergy H1, Biotek, Dorval, QC, Canada). Viability percentage was calculated as the ratio of the signal of cells exposed to compounds to the signal of cells exposed to solvent (methanol). All experiments were performed at least twice. Median cytotoxic concentrations (CC50) were calculated using GraphPad prism 10.0.2 (GraphPad Software, San Diego, CA, USA).

[2] = as above; format: cell-based; conditions: human; HCT-8 cells, 72 h treatment, 4–500 µM
Source text: as §1, §2

dengue virus (DENV) = assay: microbe, parasite or virus in culture; format: cell-based; conditions: for SI DENV (selectivity index, ratio CC50/EC50): CC50 Huh7 / EC50 DENV; for pEC50: Dengue virus, Huh-7, 72 h, DENVGFP in Huh7 cells, MOI 0.1, 3 days
[3] = target: T1, acetylcholinesterase (AChE) (Electrophorus electricus, UniProt O42275); assay: Acetylcholinesterase inhibition, colorimetric (DTNB, acetylthiocholine substrate); format: biochemical, electric eel; conditions: for inhibition at 500 µM: highest tested concentration; for pIC50: Nd = >500 μM
T1 construct: purchased Abcam ab138871
T1 sequence (O42275 24-633): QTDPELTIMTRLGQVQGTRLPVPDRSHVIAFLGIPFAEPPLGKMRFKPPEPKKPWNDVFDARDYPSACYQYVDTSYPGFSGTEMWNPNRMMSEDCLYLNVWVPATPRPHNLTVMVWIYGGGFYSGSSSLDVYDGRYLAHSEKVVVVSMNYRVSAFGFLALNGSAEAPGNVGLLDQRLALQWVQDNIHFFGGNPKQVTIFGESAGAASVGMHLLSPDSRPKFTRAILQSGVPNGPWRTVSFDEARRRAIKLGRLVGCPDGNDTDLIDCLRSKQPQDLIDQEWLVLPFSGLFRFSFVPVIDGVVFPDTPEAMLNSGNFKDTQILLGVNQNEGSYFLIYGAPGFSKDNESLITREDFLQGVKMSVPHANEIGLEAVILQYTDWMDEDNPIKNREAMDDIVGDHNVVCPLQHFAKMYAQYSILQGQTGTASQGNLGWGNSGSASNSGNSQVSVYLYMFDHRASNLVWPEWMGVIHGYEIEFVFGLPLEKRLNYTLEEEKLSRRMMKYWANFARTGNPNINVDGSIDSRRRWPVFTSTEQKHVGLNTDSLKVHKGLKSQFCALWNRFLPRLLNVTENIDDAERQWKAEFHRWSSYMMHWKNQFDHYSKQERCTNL
Experimental: (§3) Pharmacological properties specific to Alzheimer’s disease (AD) were tested on acetylcholinesterases (AChEs) from electric eels and butyrylcholinesterase (BuChE) from equine species using a colorimetric kit (ab138871, Abcam, Cambridge, UK), which measures enzyme activity and inhibition. The reaction was carried out in a final volume of 100 µL in 96-well microplates. […] A 5 µL reaction mixture containing equal amounts of acetylthiocholine/butyrylthiocholine (20X) and DTNB (20X) was then added to each well. Subsequently, the enzyme solution was added to a final concentration of 2 U/mL, and absorbance was measured at 412 nm in kinetic mode for 10 min using a microplate reader (Synergy H1, Biotek, Dorval, QC, Canada). DTNB (Bis(3-carboxy-4-nitrophenyl) disulfide, Ellman’s Reagent), acetylthiocholine iodide, and butyrylthiocholine iodide were obtained from Sigma-Aldrich (Oakville, ON, Canada). Galanthamine (50–0.05 µM) and rivastigmine (400–0.4 µM) were used as positive controls for the AChE and BuChE assays, respectively. Compounds showing inhibition during preliminary screenings were selected for further IC50 value assessment using serially diluted concentrations. All experiments were performed at least twice. Inhibition was calculated using the formula [24]:I = 100 × (1 − ΔAi/ΔA0), where ΔAi is the difference in absorbance between two time points in the presence of the inhibitor, and ΔA0 is the difference in absorbance between two-time points in the presence of DMSO or an appropriate solvent.

[4] = system: human coronavirus OC43 (HCoV-OC43); assay: Antiviral assay, HCoV-OC43 replication in HCT-8 cells (flow cytometry); format: cell-based, human betacoronavirus OC43; conditions: for pEC50: Betacoronavirus 1, OC43, HCT-8, 72 h, read-out: EC50 OC-43; for SI OC-43 (selectivity index, ratio CC50/EC50): CC50 HCT-8 / EC50 OC-43
pseudotyped HIV-1 = assay: microbe, parasite or virus in culture; format: cell-based, human immunodeficiency virus (HIV)-1; conditions: for SI HIV-1 (selectivity index, ratio CC50/EC50): CC50 THP-1 / EC50 HIV-1; for pEC50: Human immunodeficiency virus 1, THP-1, 72 h, read-out: EC50 HIV-1
[5] = target: butyrylcholinesterase (BuChE) (Equus caballus, UniProt P81908); assay: Butyrylcholinesterase inhibition, colorimetric (DTNB, butyrylthiocholine substrate); format: biochemical, equine; conditions: for inhibition at 500 µM: highest tested concentration; for pIC50: butyrylthiocholine substrate; for fold increase in BuChE inhibition by N-methylation compared to non-N-methylated control: ratio of IC50 values
Sequence of butyrylcholinesterase (BuChE) (P81908 whole entry): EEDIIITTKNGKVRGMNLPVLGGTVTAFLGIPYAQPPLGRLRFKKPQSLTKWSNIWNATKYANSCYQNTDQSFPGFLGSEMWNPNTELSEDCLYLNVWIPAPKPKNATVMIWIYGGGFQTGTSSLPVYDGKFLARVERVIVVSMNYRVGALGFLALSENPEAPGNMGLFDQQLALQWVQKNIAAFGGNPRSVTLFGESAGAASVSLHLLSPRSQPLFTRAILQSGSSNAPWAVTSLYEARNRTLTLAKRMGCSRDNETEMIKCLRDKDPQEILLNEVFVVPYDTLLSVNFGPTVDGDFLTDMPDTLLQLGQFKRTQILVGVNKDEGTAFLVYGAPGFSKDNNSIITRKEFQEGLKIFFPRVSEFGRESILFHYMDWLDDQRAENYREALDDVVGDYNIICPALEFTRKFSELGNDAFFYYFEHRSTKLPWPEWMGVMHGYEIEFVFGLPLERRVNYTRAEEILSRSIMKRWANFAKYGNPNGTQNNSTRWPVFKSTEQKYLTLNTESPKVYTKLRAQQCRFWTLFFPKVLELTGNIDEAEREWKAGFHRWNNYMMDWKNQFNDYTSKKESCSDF
Experimental: as §3

AChE = system: AChE; set-up: method as in earlier work; conditions: ref 19 (Vaněčková et al.); cited from earlier work
Huh7 cells = assay: Cytotoxicity assay (Cell-Titer GLO, ATP levels, 72 h); format: cell-based, human; conditions: 72 h treatment, 4–500 µM
Source text: as §1, §2

THP-1 cells = assay: as above; format: cell-based, human; conditions: 72 h treatment, 4–500 µM
Source text: as §1, §2

SMILES	CC50 at 72 h ([1]; Huh7 cells)	CC50 at 72 h ([1]; THP-1 cells)	CC50 at 72 h [2]	SI DENV (selectivity index, ratio CC50/EC50) (dengue virus (DENV))	pEC50 (dengue virus (DENV))	inhibition at 500 µM [3]	pIC50 [3]	pEC50 [4]	SI OC-43 (selectivity index, ratio CC50/EC50) [4]	SI HIV-1 (selectivity index, ratio CC50/EC50) (pseudotyped HIV-1)	pEC50 (pseudotyped HIV-1)	inhibition at 500 µM [5]	pIC50 [5]	fold increase in BuChE inhibition by N-methylation compared to non-N-methylated control [5]	anti-AChE activity (AChE)	CC50 (Huh7 cells)	CC50 (THP-1 cells)
COc1ccc(CNCCc2ccc(O)cc2)cc1OC [3′,4′-O-dimethylnorbelladine]	> 500 µM	> 500 µM	> 500 µM	>3.64	3.86	37%	< 3.30	4.07	>5.91	>2.63	3.72	94%	3.97				
COc1cc(CNCCc2ccc(O)cc2)ccc1O [3′-O-methylnorbelladine]	> 500 µM	> 500 µM	> 500 µM	>3.62	3.86	10%	< 3.30	4.13	>6.71	>2.83	3.75	96%	4.56				
COc1ccc(CN(C)CCc2ccc(O)cc2)cc1O [4′-O,N-dimethylnorbelladine, 5-(((4-hydroxyphenethyl)(methyl)amino)methyl)-2-methoxyphenol]	460 µM	> 500 µM	> 500 µM	4.81	4.02	43.6%	< 3.30	4.37	>11.80	>4.06	3.91	99%	4.98	1.5 fold			
COc1ccc(CCN(C)Cc2ccc(O)c(OC)c2)cc1 [4′-O-demethylbelladine]															weak		
COc1ccc(CNCCc2ccc(O)cc2)cc1O [4′-O-methylnorbelladine]	> 500 µM	> 500 µM	> 500 µM	>6.28	4.10	33.6%	< 3.30	4.20	>7.93	>3.06	3.79	99%	4.79				
CN(CCc1ccc(O)cc1)Cc1ccc(O)c(O)c1 [N-methylnorbelladine]	386 µM	227 µM	> 500 µM	5.70	4.17	31.2%	< 3.30	4.18	>7.49	5.36	4.37	96%	5.40	2 fold		386 µM	227 µM
Oc1ccc(CCNCc2ccc(O)c(O)c2)cc1 [Norbelladine]	233 µM	148 µM	> 500 µM	3.30	4.15	24.5%	< 3.30	4.25	>8.98	2.22	4.17	95%	5.10			233 µM	148 µM
